Assay results taken from US10457689B2, “Ammonium derivatives, a process for their preparation and pharmaceutical compositions containing them” (LES LABORATOIRES SERVIER, priority 2016, dated 2019).
In brackets after ≈: the same amount, converted by molar mass.

Key:
[1] = target: Mcl-1 protein (Homo sapiens, UniProt Q07820); experiment: Inhibition of Mcl-1 by the fluorescence polarisation technique; assay type: binding; conditions: fluorescence polarisation test; read-out: IC50 (M) Mcl-LFP
Experimental: The relative, binding potency of each compound was determined via Fluorescence Polarisation (FP). The method utilised a Fluorescein labelled ligand (Fluorescein-βAla-Ahx-A-REIGAQLRRMADDLNAQY-OH; mw 2,765) which binds to the Mcl-1 protein (such that Mcl-1 corresponds to the UniProtKB® primary accession number: Q07820) leading to an increased anisotropy measured in milli-polarisation (mP) units using a reader. The addition of a compound which binds competitively to the same site as the ligand will result in a greater proportion of unbound ligand in the system indicated by a decrease in mP units.
An 11 point serial dilution of each compound was prepared in DMSO and 2 μl transferred into flat bottomed, low binding, 384-well plate (final DMSO concentration 5%), 38 μl of buffer (10 mM 4-(2-hydroxyethyl)-1-piperazineethanesolfonic acid [HEPES], 150 mM NaCl, 0.05% Tween 20, pH 7.4), containing the Fluorescein labelled ligand (final concentration 1 nM) and Mcl-1 protein (final concentration 5 nM) was then added.
Assay plates were incubated ˜2 hours at room temperature before FP was measured on a […] Synergy2 reader (Ex. 528 nm, Em. 640 nm, Cut off 510 nm) and mP units calculated. The binding of increasing doses of test compound was expressed as a percentage reduction in mP compared to a window established between ‘5% DMSO only’ and ‘100% inhibition’ controls. 11-point dose response curves were plotted with XL-Fit software using a 4-Parameter Logistic Model (Sigmoidal Dose-Response Model) and the inhibitory concentrations that gave a 50% reduction in mP (IC50) were determined.

[2] = tested on: H929 multiple myeloma tumour line; experiment: In vitro cytotoxicity (MTT); assay type: cell-based; conditions: 48 hours exposure
Experimental: The cytotoxicity studies were carried out on the H929 multiple myeloma tumour line.
The cells are distributed onto microplates and exposed to the test compound for 48 hours.
The cell viability is then quantified by a colorimetric assay, the Microculture Tetrazolium Assay (Carmichael et al. Cancer Res. 1987, 47, 936-942).

[3] = Solubility test Method 1; assay type: physicochemical; conditions: Method 1: 30% propylene glycol in water, shaked 72 hours at room temperature
Experimental: Sample solutions (around 16.7 mg/ml) in propylene glycol were diluted with water (30% propylene glycol). Then, samples were shaked for 72 hours at room temperature. After shaking period, samples were centrifuged, then the liquid phase was filtered and analyzed using HPLC coupled to UV detection. To determine the actual concentration a 5-point calibration curve was established.

[4] = Solubility test Method 2; assay type: physicochemical; conditions: Method 2: aqueous phosphate buffer 67.7 mM, pH 7.4, room temperature
Experimental: Samples (40 mg/mL) were diluted in aqueous phosphate buffer (67.7 mM, with pH adjusted at 7.4) used for in vivo studies. Samples were shaked at room temperature, then filtered. The solubilized fraction was quantified by LC-MS-MS analysis.

[5] = Homo sapiens, NCI-H929, H929 cells

Sequence of Mcl-1 protein (Q07820 whole entry): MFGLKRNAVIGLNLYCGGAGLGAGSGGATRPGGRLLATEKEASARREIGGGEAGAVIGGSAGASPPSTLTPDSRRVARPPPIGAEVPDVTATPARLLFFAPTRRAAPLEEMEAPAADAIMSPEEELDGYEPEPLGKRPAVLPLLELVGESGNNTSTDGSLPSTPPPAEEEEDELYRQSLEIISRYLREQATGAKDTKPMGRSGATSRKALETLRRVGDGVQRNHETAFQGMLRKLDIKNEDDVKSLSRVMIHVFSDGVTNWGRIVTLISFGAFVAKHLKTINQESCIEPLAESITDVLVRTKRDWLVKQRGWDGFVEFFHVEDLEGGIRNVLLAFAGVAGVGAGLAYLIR

IC50 [1] [M]	solubility [4] [mg/mL]	SMILES	IC50 ([2]; H929 cells) [nM]	solubility [3] [µM]	IC50 [2, 5] [nM]
1.06e-09	> 35	COc1ccccc1-c1nccc(COc2ccccc2CC(Oc2ncnc3sc(-c4ccc(F)cc4)c(-c4ccc(OCC[N+](C)(C)COP(=O)([O-])O)c(Cl)c4C)c23)C(=O)O)n1 [Example 11, {4-[2-(4-{(5Sa)-4-[(1R)-1-carboxy-2-(2-{[2-(2-methoxyphenyl)pyrimidin-4-yl]methoxy}phenyl)ethoxy]-6-(4-fluorophenyl)thieno[2,3-d]pyrimidin-5-yl}-2-chloro-3-methylphenoxy)ethyl](dimethyl)ammonio}methyl hydrogen phosphate]			39.3
1.06e-09		COc1ccccc1-c1nccc(COc2ccccc2CC(Oc2ncnc3sc(-c4ccc(F)cc4)c(-c4ccc(OCCN5CC[N+](C)(COP(=O)([O-])O)CC5)c(Cl)c4Br)c23)C(=O)O)n1 [Example 5, {4-[2-(3-bromo-4-{(5Sa)-4-[(1R)-1-carboxy-2-(2-{[2-(2-methoxyphenyl)pyrimidin-4-yl]methoxy}phenyl)ethoxy]-6-(4-fluorophenyl)thieno[2,3-d]pyrimidin-5-yl}-2-chlorophenoxy)ethyl]-1-methylpiperazin-1-ium-1-yl}methyl hydrogen phosphate]			55.4
		COc1ccccc1-c1nccc(COc2ccccc2C[C@@H](Oc2ncnc3sc(-c4ccc(F)cc4)c(-c4ccc(OCCN5CCN(C)CC5)c(Cl)c4C)c23)C(=O)O)n1 [(2R)-2-{[(5Sa)-5-{3-chloro-2-methyl-4-[2-(4-methylpiperazin-1-yl)ethoxy]phenyl}-6-(4-fluorophenyl)thieno[2,3-d]pyrimidin-4-yl]oxy}-3-(2-{[2-(2-methoxyphenyl)pyrimidin-4-yl]methoxy}phenyl)propanoic acid, reference compound]		63.3 (≈ 55.4 µg/mL)	

SMILES	IC50 [1] [M]	solubility [4] [mg/mL]	IC50 ([2]; H929 cells) [nM]	solubility [3] [µM]	IC50 [2, 5] [nM]
COc1ccccc1-c1nccc(COc2ccccc2C[C@@H](Oc2ncnc3sc(-c4ccc(F)cc4)c(-c4ccc(OCCN5CC[N+](C)(COP(=O)([O-])O)CC5)c(Cl)c4C)c23)C(=O)O)n1 [Example 1, {4-[2-(4-{(5Sa)-4-[(1R)-1-carboxy-2-(2-{[2-(2-methoxyphenyl)pyrimidin-4-yl]methoxy}phenyl)ethoxy]-6-(4-fluorophenyl)thieno[2,3-d]pyrimidin-5-yl}-2-chloro-3-methylphenoxy)ethyl]-1-methylpiperazin-1-ium-1-yl}methyl hydrogen phosphate]	1.03e-09		28.4	≥ 4907	
